Laboratory results taken from US6756480B2, “Modulators of receptors for parathyroid hormone and parathyroid hormone-related protein” (Amgen Inc., priority 2000, dated 2004).

Legend:
Assay type in all cases: in vivo
[1] = test system: aged ovariectomized (OVX) rats; experiment: Monotherapy in aged ovariectomized (OVX) rats: twice-weekly treatment, BMD by DEXA and serum calcium
Protocol: Eleven months after OVX, rats were treated twice per week with phosphate-buffered saline (PBS, vehicle) or with APD (0.5 mg/kg) or with PTH-(1-34)-Fc (50 nmol/kg). DEXA was performed weekly. Blood was drawn 24 hours after the second weekly injection, when the calcemic effects of PTH-Fc are typically maximal. The effects of PTH-Fc administration on lumbar BMD (FIG. 11A), tibia/femur BMD (FIG. 11B), femoral metaphysis BMD (FIG. 11C), and serum calcium (FIG. 11D) were determined.
Sprague Dawley rats were OVX'd at 3 months of age and allowed to lose bone for 11 months. Other rats were sham-operated and treated twice per week with vehicle (PBS). OVX rats were treated twice per week with SC injections of either vehicle or the bisphosphonate APD (pamidronate, 0.5 mg/kg), or with PTH-(1-34)-Fc (50 nmol/kg) or with APD+PTH-(1-34)-Fc. BMD was determined weekly via dual energy X-ray absorptiometry (DEXA). Rats were sacrificed after 4 weeks of treatment. At the start of treatment, OVX rats had significant reductions in BMD at all skeletal sites analyzed, compared to vehicle-treated […] (FIG. 11, p<0.05, 2-way ANOVA).

rats = experiment: Hypercalcemic response to a single SC injection in rats; conditions: single SC injection 340 nmol/kg
Protocol: (See FIG. 10.) In an aged OVX rat model of osteoporosis, twice weekly dosing was able to reverse more than 50% of the bone loss induced by one year of estrogen ablation. The effect seen in the aged rat model was even greater when combined with a bisphosphonate (APD). In rats, a single SC injection of PTH-(1-34)-Fc (340 nmol/kg) caused a hypercalcemic response which persisted for 72 hours (FIG. 8). This duration is concordant with the rate of clearance of PTH-(1-34)-Fc from the serum, and is consistent with an optimal twice-weekly dosing regimen in rats.

mice = experiment: Chronic hypercalcemia induced by PTH-(1-34)-Fc challenge, antagonist given SC; conditions: 30 mg/kg single SC, 24 h post challenge, vehicle-treated normal mice (normal control 1.35); the values are: blood ionized calcium
Protocol: Normal male mice were challenged once by SC injection with PTH-(1-34)-Fc (30 mg/kg) (open circles), or with vehicle (PBS, open squares). Some PTH-(1-34)-Fc-challenged mice were treated once, at the time of challenge, with [Asn10,Leu11]PTHrP-(7-34)-Fc at 10 (closed triangle), 30 (closed circle), or 100 mg/kg (closed square). […] Data represent means±SEM, n=5 mice/group.
In order to test the ability of [Asn10,Leu11]PTHrP-(7-34)-Fc to antagonize more chronic hypercalcemia, we used PTH-(1-34)-Fc as a long-acting calcemic agent. This study also represents a model for primary and secondary hyperparathyroidism, diseases which are characterized by persistent elevation of PTH levels. In vehicle-treated mice, a single SC injection of PTH-(1-34)-Fc (30 mg/kg) caused a robust hypercalcemic response in normal mice, reaching a level of 2.75 mg/dl at 24 h post challenge (vs. normal control value of 1.35).

With “PTH-(1-34)-Fc: human PTH-(1-34), SVSEIQLMHNLGKHLNSMERVEWLRKKLQDVHNF, linked at its C-terminus to an Fc domain” the calcemic response ([1]; 50 nmol/kg twice per week, alone) was “mild and transient hypercalcemic response”, the “BMD at the femoral metaphysis” value ([1]; PTH-(1-34)-Fc 50 nmol/kg twice per week, alone or with APD 0.5 mg/kg, p<0.05) was “significant increase in BMD” and the “day after which hypercalcemic response resolved spontaneously” value ([1]; despite continued treatments) was over 10 days. The “reversal of bone loss induced by one year of estrogen ablation” value ([1]; twice weekly dosing) was “more than 50%”, the “duration of treatment at which BMD increase at the femoral metaphysis was significant” value ([1]; twice-weekly treatment) was 4 weeks and the “persistence of hypercalcemic response” value (rats) was 72 h. For the same substance, the level reached in hypercalcemic response (mice) was 2.75 mM.
